Legend:
rats [1] = assay: Geller Conflict test (conflict segment); assay type: in vivo; settings: Rattus norvegicus; for minimal effective dose: conflict segment (number of lickings), read-out: minimum effective dosage in conflict test
Method: Speth et al., Life Science, 22: 859 (1978). Routine and non-substantive modifications of the Flunitrazepam Receptor Binding Assay that are evident from the following description are employed in such evaluation in which non-radioactive candidate compounds are tested for their ability to displace ^3 H-flunitrazepam binding from isolated calf brain benzodiazepine receptors. […] This suspension is made homogenous by homogenation with a Brinkmann Polytron using a rheostate setting of 8 for 10 seconds. Ten λ of ^3 H-flunitrazepam solution is diluted in 0.05M Tris buffer (pH 7.1 at 37° C.) to give a concentration of 10 nM (3.13×10^-6 mg/ml). This solution is stored frozen at -20° C., while the stock ^3 H-flunitrazepam solution in ethanol is kept refrigerated at +2° C. Periodically, the stock ethanolic ^3 H-flunitrazepam solution is examined by TLC for chemical purity. If the purity becomes <90%, the stock solution is repurified or new high purity ^3 H-flunitrazepam is obtained and the impure ^3 H-flunitrazepam discarded. A 0.1 ml portion of 10 nM ^3 H-flunitrazepam "working" solution is added to 12×75 mm borosilicate disposable test tube along with 0.1 ml of freshly prepared 10% ethanol solution. This is the control tube for measuring total binding. Non-specific binding is determined by the addition of 2×10^-5 diazepam (in 10% ethanol) to other tubes in the place of 0.1 ml 10% ethanol. The specific binding is determined in the final results by subtraction of the non-specific binding from the total binding. […] Three mg of each compound are placed in 18×150 mm borosilicate disposable test tubes. […] The ^3 H-flunitrazepam trapped on the filters is counted by liquid scintillation counting on a Beckman LS 8000 after the filters are rapidly shaken for 45 minutes in the scintillation vials with 10 ml of scintillation cocktail. Results of compounds screened are calculated by the on-line data reduction system in the Beckman LS 8000, and are expressed as a percent specifically bound compared to control. […]

[2] = test system: monkeys, rats, cats, mice; assay: Other standard CNS depressant tests (sleep studies, spinal reflex test, chemically induced convulsions test, Dunham rotarod test, variable interval segment of Geller Conflict test); assay type: in vivo; settings: at the doses useful as minor tranquilizers, sleep studies in monkeys and rats
[3] = biological target: calf brain benzodiazepine receptors (3H-Flunitrazepam binding, calf brain cortex); assay: Flunitrazepam Receptor Binding Assay, Chang et al. modification (FBA TEST No. 2); settings: read-out: IC50 in FBA test (inhibition of specific binding of 3H-Flunitrazepam)
Method: Substantially similar results are obtainable in a Flunitrazepam Receptor Binding Assay (FBA) as described by Chang et. al., Eur. J. Pharmacol., 48, 213 (1978): when carried out with the non-substantive modifications evident from the following description (hereinafter FBA TEST No. (2): Fresh calf brain cortex is homogenized in a 19 fold volume of Tris-HCl buffer pH 7.4, using a Brinkman Polytron PT 20 and centrifuged at 50'000 g for 10 min. The pellets are frozen at -20° C. and resuspended in a 400 fold volume of Tris-buffer pH 7.4 before use for the binding assay. The assay mixtures consist of 1.8 ml of homogenate (corresponding to 4.5 mg of original tissue), 0.1 ml [^3 H]-Flunitrazepam (final concentration 1.5 nM), and 0.1 ml of buffer for determination of total binding or 0.1 ml of unlabelled Flunitrazepam (final concentration 1 μM) for determination of nonspecific binding, respectively. To assess the potency of various drugs in inhibiting specific binding, drugs are added (instead of buffer) to give 5 to 9 different concentrations between 1 nM and 10 μM, each in duplicate. After incubation for 15 min at 0° C., the assay mixtures are rapidly filtered through Whatman GF/B filters and washed twice with 5 ml of ice cold Tris-buffer. The filters are counted in Rialuma on a LKB Rach-Beta Liquid Scintillation Counter. […]

[4] = Rotarod, Locomotion and Rearing Tests (indicative of sedation); assay type: in vivo; settings: rat, locomotion, rearing tests, rats, one value stated for the three tests
Excerpt: (§1) While the racemates and individual optical isomers were indicated to have about the same level of activity in FBA tests specifically indicating tranquilizing activity, a marked difference was found between R-and S optical isomers in vivo in tests indicative of sedation. […] On the other hand, in the case of the S-isomer, the doses producing sedation effects were indicated to substantially overlap those at which tranquilizing activity was indicated. For example, in vivo tests in rats. The S-isomer of Example 9 hereinafter was indicated to have tranquilizing (anxiolytic) action in the dose range of about 2 to 15 milligrams per kilograms and mild sedation-related effects in the dose range of about 3-50 milligrams per kilogram. […] In evaluation of the optical isomers in rats to obtain the above indications, the Discrimination Test and the conflict segment (number of lickings) of Geller Conflict Test were used to evaluate tranquilizing activity. […] In the conflict test, the R-isomer was indicated to have a minimum effective dosage of 30 mg/kg. and the S-isomer a minimum effective dosage of 10 mg/kg. […] On the other hand, the S-isomer was indicated to have an ED50 between 40-50 mg/kg. in the Rotarod, Locomotion and Rearing Tests and a low minimum effective dose of 3 mg/kg. in the Sleep Studies.

rats [5] = assay: Sleep studies (sleep/wakefulness studies); assay type: in vivo; settings: indicative of sedation
Excerpt: as §1

rats [6] = assay: Discrimination Test; assay type: in vivo; settings: Rattus norvegicus, tranquilizing activity
Excerpt: as §1

rats [7] = assay: In vivo tests in rats: dose ranges of tranquilizing action and sedation-related effects; settings: about; for dose range of sedation-related effects: mild (S-isomer) or weak-to-mild (R-isomer) effects
Excerpt: as §1

## O=c1c2cc(C(F)(F)F)ccc2nc2n1CC1CCCCN21 (stereo not drawn) [Example 1, Trans(e,e)-( )-2-trifluoromethyl-7,8,9,10,10a,11-Hexahydro-13H-pyrido[1',2':3,4]-imidazo[2,1-b]-quinazolin-13-one]
Rats [1]; po, P.O.
  ED50: 15 mg/kg
[2]
  activity in other standard CNS depressant tests: only mildly active or essentially inactive
[3]
  IC50: 6.5 nM

## O=c1c2cc(C(F)(F)F)ccc2nc2n1C[C@H]1CCCCN21 [Example 5, (-)-10aR-7,8,9,10,10a,11-hexahydro-2-trifluoromethyl-13H-pyrido[1,'2':3,4]imidazo[2,1b]quinazolin-13-one]
[4]
  ED50: > 120 mg/kg
Rats [1]
  minimal effective dose: 30 mg/kg
Rats [5]
  minimum effective dose in sleep studies (sleep/wakefulness studies): 60 mg/kg
Rats [6]
  ED50: 4.2 mg/kg
Rats [7]
  dose range of tranquilizing (anxiolytic) action: 4-40 milligrams per kilogram
  dose range of sedation-related effects: 60-120 milligrams per kilogram

## O=c1c2cc(C(F)(F)F)ccc2nc2n1C[C@@H]1CCCCN21 [Example 8, (+)-10aS-7,8,9,10,10a,11-Hexahydro-2-trifluoromethyl-13H-pyrido[1,'2':3,4]imidazo[2,1b]quinazolin-13-one]
[4]
  ED50: 40 to 50 mg/kg
Rats [1]
  minimal effective dose: 10 mg/kg
Rats [5]
  minimum effective dose in sleep studies (sleep/wakefulness studies): 3 mg/kg
Rats [6]
  ED50: 2.6 mg/kg
Rats [7]
  dose range of sedation-related effects: 3-50 milligrams per kilogram
